In PubChem BioAssay (NCI):
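96-well plates; 48 h exposure; 5 concentrations. Endpoints by linear interpolation between flanking doses. Not reached: highest tested concentration assigned. At the GI50, growth is halved. Definition used: TGI = concentration required for complete inhibition of growth.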

Tests used:
Experiment in all cases: NCI-60 cell line screen, 48 h
[1] = tested on: OVCAR-5 ovarian
[2] = tested on: HCT-15 colon
[3] = tested on: 786-0 renal
[4] = tested on: HL-60(TB) leukemia
[5] = tested on: SW-620 colon
[6] = tested on: TK-10 renal
[7] = tested on: OVCAR-3 ovarian
[8] = tested on: NCI-H23 lung
[9] = tested on: T-47D breast

SMILES	TGI [1] [µM]	TGI [2] [µM]	TGI [3] [µM]	TGI [4] [µM]	TGI [5] [µM]	TGI [6] [µM]	TGI [7] [µM]	TGI [8] [µM]	GI50 [1] [nM]	GI50 [2] [nM]	GI50 [9] [nM]	TGI [9] [µM]	GI50 [3] [nM]	GI50 [6] [nM]	GI50 [4] [nM]	GI50 [5] [nM]	GI50 [7] [nM]	GI50 [8] [nM]
COc1cc(/C=C\c2ccc(Br)cc2)cc(OC)c1OC	96.8	34.7	13.7	0.0032	> 100													
CCOC(=O)C1=C(Nc2ccc(Br)cc2)OC/C1=N\NC(=O)c1ccccc1O	> 100	> 65.3	> 100	37.2	> 49.4	> 100	77.7	33.1										
CC(=O)OC1CCC2C(=CCC3C2(C)C(=O)CC2(C)C(C4(C)OC(C(C)C)=CC4=O)C(O)CC32C)C1(C)C (stereo unspecified)	> 100	> 100	> 100		> 100		> 10	> 100										
CC(=O)/C=C1\CC(=O)Nc2ccccc2N1	> 100	> 100	> 100	> 100	> 100	> 100		> 100										
CCn1c(=O)c2ccccc2n2c(=O)c3cc4ccccc4cc3nc12	> 100	> 100	> 100	> 100	> 100	> 100	> 100	> 100										
CS/C(c1ccccc1)=[N+](\[O-])Cc1ccccc1	> 100	32.9	> 100	> 100		> 100	> 100	> 100										
COc1ccc2c(CCNC(=O)/C=C/c3ccccc3)c(C(C)=O)[nH]c2c1[N+](=O)[O-]		> 100	> 100	> 100	> 100		> 100	58										
O=C1c2ccccc2-c2c1c1ccc([N+](=O)[O-])cc1c(=O)n2CCCNCCO	1.92	1.69	0.43	1.52	1.77	4.1	2.78	0.713	520	276	42	1.71	47.9	1370	242	59.4	1140	115
CCOC(=O)N1C(c2ccccc2)C=CC(c2ccccc2)N1C(=O)OCC (stereo unspecified)	> 100	> 100	> 100		> 100	> 100	> 100	> 100										
O=C(O)c1ccccc1N=Nc1ccc2oc(=O)c(C(=O)Nc3ccccc3)cc2c1		> 100	> 100	66.9	> 100	> 100	70.4	> 100										
N#Cc1ccc(Oc2cccc(Oc3ccccc3)c2)cc1C#N	> 100		> 100	> 100	> 100	> 100	> 100	> 100	> 100000				> 100000	> 100000				
Cc1cc(N(CCCNc2ccnc3cc(Cl)ccc23)Cc2ccc3c(c2)OCO3)nc(N2CCCCC2)n1	7.04	3.05	3.09			4.01	3.19	13.3	2440	1420	1990	4.82	1570	1910			1630	2670
O=C(N/C(=C\c1ccc(/C=C(\NC(=O)c2ccccc2)c2nc3ccccc3s2)cc1)c1nc2ccccc2s1)c1ccccc1	31	16	3.49	5.71	14.8	25.2	12.1	29.9										
Cn1c(=O)c(C(=O)NC(=O)NCCCCCOC(=O)CCCCCCCCCCC(=O)OCCCCCNC(=O)NC(=O)c2cn(Cc3ccccc3)c(=O)n(C)c2=O)cn(Cc2ccccc2)c1=O	> 100	> 100	> 100	> 100	> 100	> 100	> 100	> 100										
CCOC(=O)c1ccc(N2C(=O)Cc3ccccc3C2=O)cc1	> 100	> 100	> 100		> 100	> 100	> 100	> 100										
CS(=O)(=O)N(CCC#N)c1ccc(C=O)cc1	> 100	> 100	> 100	> 100	> 100		> 100											
CCOC(=O)C(C)(C)Oc1ccc2c(-c3ccc(Cl)cc3)c(-c3ccc(Cl)cc3)c(=O)oc2c1		> 100	> 100	> 100	> 100	> 100	> 100	> 100										
Cc1c(-c2nnc(-c3ccccc3)o2)c(=O)n(-c2ccccc2)n1C		> 100	> 100	> 100	> 100	> 100	> 100	> 100										
